In PubChem BioAssay (NCI):
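Assay format: 96-well plates, 48-hour exposure. Definition used: TGI = concentration required for complete inhibition of growth.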 Where a SMILES comes first, the peptide text is derived from it. The star is where a group is joined. Boc = CC(C)(C)OC(=O)*

Key:
Experiment in all cases: inhibition of tumour cell growth, NCI panel, 48 h
HCT-15 colon = system: HCT-15 colon
KM12 colon = system: KM12 colon
MDA-MB-231 breast = system: MDA-MB-231 breast
PC-3 prostate = system: PC-3 prostate
SF-539 CNS = system: SF-539 CNS
SK-MEL-2 melanoma = system: SK-MEL-2 melanoma
SK-MEL-28 melanoma = system: SK-MEL-28 melanoma
SN12C renal = system: SN12C renal
UO-31 renal = system: UO-31 renal
CCRF-CEM leukemia = system: CCRF-CEM leukemia

Structure (SMILES)	TGI (HCT-15 colon)	TGI (KM12 colon)	TGI (MDA-MB-231 breast)	TGI (PC-3 prostate)	TGI (SF-539 CNS)	TGI (SK-MEL-2 melanoma)	TGI (SK-MEL-28 melanoma)	TGI (SN12C renal)	TGI (UO-31 renal)	TGI (CCRF-CEM leukemia)
O=C(CCCCCCCCC(=O)NN1C(=O)/C(=C\c2ccc(O)c(O)c2)SC1c1ccc(Cl)cc1)NN1C(=O)/C(=C\c2ccc(O)c(O)c2)SC1c1ccc(Cl)cc1 (configuration not stated)	> 100 µM	> 100 µM	> 100 µM	> 100 µM	43.8 µM	> 61.8 µM	> 100 µM	> 100 µM	> 55 µM	–
O=C(O)c1c2c(cc3c1CC1(Cc4ccccc4C1)C3)CCC2	> 100 µM	> 100 µM	> 100 µM	> 100 µM	> 100 µM	–	> 100 µM	> 100 µM	> 100 µM	66.7 µM
CC[C@]1(Cc2ccc(OC)c(OC)c2)CN(S(=O)(=O)c2ccc(C)cc2)C[C@@H]1OC(C)=O	> 100 µM	> 100 µM	> 100 µM	> 100 µM	> 100 µM	> 100 µM	> 100 µM	–	> 100 µM	> 100 µM
COC(=O)CNC(=O)C(Cc1ccccc1)NC(=O)C(CCSC)NC(=O)C(Cc1ccc(O)cc1)NC(=O)OC(C)(C)C (configuration not stated) (Boc-YMFG-OMe; configuration not given here)	> 100 µM	> 100 µM	52.8 µM	> 100 µM	> 100 µM	33.1 µM	34.8 µM	> 100 µM	> 100 µM	–
O=C1CCC[C@@H]2NC[C@@H](c3ccc4c(c3)OCO4)[C@H]12	> 25 µM	> 25 µM	> 25 µM	> 25 µM	–	> 25 µM	> 25 µM	> 25 µM	> 25 µM	> 25 µM
CN1C(=O)C2C(=O)N(Cc3ccccc3)CC(=O)N2c2cccnc21 (configuration not stated)	> 100 µM	> 100 µM	> 100 µM	> 100 µM	> 100 µM	> 100 µM	–	–	> 100 µM	> 100 µM
CC(C)=CCOC(=O)C(C)=[N+]=[N-]	> 100 µM	> 100 µM	> 100 µM	> 100 µM	–	–	> 100 µM	> 100 µM	> 100 µM	–
Cc1cc(N(CCC#N)CCC#N)ccc1/C=N/NC(=O)c1cc(Cl)ccc1O	> 100 µM	–	> 100 µM	> 100 µM	> 100 µM	> 100 µM	–	> 100 µM	–	> 100 µM
Cc1nnc(Nc2ccccc2)o1	> 100 µM	> 100 µM	–	> 100 µM	> 100 µM	> 100 µM	> 100 µM	> 100 µM	> 100 µM	> 100 µM
CCN(CC)CCc1c2c(nc3ccccc13)C(=O)c1cccnc1C2=O	1.29 µM	6.57 µM	6.72 µM	18.6 µM	–	10.4 µM	7.27 µM	5.92 µM	–	5.72 µM
C[C@@]12[C@H]3CC[C@@H]1[C@H](O)C(=O)N2CC3	> 100 µM	> 100 µM	> 100 µM	> 100 µM	> 100 µM	> 100 µM	> 100 µM	–	> 100 µM	> 100 µM
c1ccc2c(c1)OC(N1CCCC1)c1cnc(N3CCCC3)nc1-2 (configuration not stated)	> 100 µM	> 100 µM	> 100 µM	> 100 µM	> 100 µM	–	> 100 µM	> 100 µM	87.7 µM	67.3 µM
NC(N)=NS(=O)(=O)c1ccc(NCc2c3ccccc3[n+]([O-])c3ccccc23)cc1	74.4 µM	> 100 µM	–	–	–	> 100 µM	62.5 µM	> 100 µM	73.8 µM	84.4 µM
O=C(O)CSc1nnc(COc2ccc(Cl)cc2)n1-c1ccccc1	> 100 µM	> 100 µM	> 100 µM	> 100 µM	–	> 100 µM	> 100 µM	> 100 µM	> 100 µM	> 100 µM
Cc1nc2c(sc(=S)n2-c2ccccc2)c2nc3ncccc3n12	> 100 µM	> 100 µM	> 100 µM	> 100 µM	–	> 100 µM	> 100 µM	> 100 µM	> 100 µM	> 100 µM
Cc1ccc(-c2c(C#N)c(-c3ccccc3)n(NS(=O)(=O)c3ccccc3)c(=O)c2C#N)cc1	> 100 µM	> 100 µM	> 100 µM	> 100 µM	> 100 µM	> 100 µM	> 100 µM	> 100 µM	–	> 100 µM
CCOC(=O)C1Cc2[nH]c3ccccc3c2C(C)C1C (configuration not stated)	32.1 µM	34.6 µM	–	–	31.4 µM	36 µM	33.7 µM	32.8 µM	35.8 µM	57.4 µM
CCN1CC2=C(NC(=S)NC2c2ccc(Cl)cc2)/C(=C/c2ccc(Cl)cc2)C1 (configuration not stated)	> 100 µM	> 100 µM	> 100 µM	> 100 µM	–	> 100 µM	> 100 µM	–	> 100 µM	87.7 µM
CN(C)/N=N/c1nc2c(c(=O)n(C)c(=O)n2C)n1C	> 100 µM	> 100 µM	> 100 µM	> 100 µM	–	> 100 µM	> 100 µM	> 100 µM	> 100 µM	> 100 µM
Nc1cc(CO)cc(Nc2nc3ccc(Cl)cc3c3[nH]c4ccccc4c23)c1	18.6 µM	18.6 µM	12 µM	19.1 µM	14.1 µM	15 µM	–	12.9 µM	11.6 µM	23.8 µM
COc1ccc(C(C#N)NNC(=O)c2ccccc2O)cc1OC (configuration not stated)	> 100 µM	> 100 µM	–	–	6.81 µM	78.2 µM	> 100 µM	> 100 µM	2.2 µM	> 100 µM
C[N+]1=C2[B-](C(C)(C)C)=[N+](C(C)(C)C)[B-]2(C(C)(C)C)[N+](C)=C2[B-](C(C)(C)C)=[N+](C(C)(C)C)[B-]21C(C)(C)C (configuration not stated)	> 100 µM	> 100 µM	> 100 µM	> 100 µM	–	> 100 µM	> 100 µM	> 100 µM	> 100 µM	> 100 µM
